From ChEMBL document CHEMBL1133485, “3alpha-(4-Substituted phenyl)nortropane-2beta-carboxylic acid methyl esters show selective binding at the norepinephrine transporter” (Bioorg Med Chem Lett, 2000)

Columns and labels:
[1] = biological target: T1, Norepinephrine transporter (Rattus norvegicus, UniProt Q9WTR4); test: Inhibition of 0.5 nM [3H]nisoxetine binding to Norepinephrine transporter
[2] = biological target: T1, Norepinephrine transporter; test: Inhibition of 0.5 nM [3H]nisoxetine binding toNorepinephrine transporter
[3] = biological target: T2, Sodium-dependent serotonin transporter (Rattus norvegicus, UniProt P31652); test: Inhibition of 0.2 nM [3H]paroxetine binding to Serotonin transporter
T2 sequence (P31652 whole entry): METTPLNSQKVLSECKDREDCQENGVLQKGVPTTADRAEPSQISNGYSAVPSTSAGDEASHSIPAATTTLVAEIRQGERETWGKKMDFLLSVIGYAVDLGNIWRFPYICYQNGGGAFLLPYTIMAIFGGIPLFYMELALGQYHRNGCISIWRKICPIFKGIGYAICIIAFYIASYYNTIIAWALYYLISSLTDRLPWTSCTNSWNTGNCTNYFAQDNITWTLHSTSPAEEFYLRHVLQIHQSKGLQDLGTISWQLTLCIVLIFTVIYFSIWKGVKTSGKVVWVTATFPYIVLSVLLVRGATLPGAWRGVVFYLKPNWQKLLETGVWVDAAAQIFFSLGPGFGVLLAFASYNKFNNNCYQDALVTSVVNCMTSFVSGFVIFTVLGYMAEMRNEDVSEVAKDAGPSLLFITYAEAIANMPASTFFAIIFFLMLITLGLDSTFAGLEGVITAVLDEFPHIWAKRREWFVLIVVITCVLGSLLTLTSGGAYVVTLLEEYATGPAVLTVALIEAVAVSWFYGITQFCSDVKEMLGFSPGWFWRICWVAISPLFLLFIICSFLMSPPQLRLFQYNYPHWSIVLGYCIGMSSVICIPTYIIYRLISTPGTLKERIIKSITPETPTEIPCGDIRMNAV

[4] = biological target: Sodium-dependent dopamine transporter (Rattus norvegicus, UniProt P23977); test: Displacement of 0.5 nM [3H]WIN-35248 from Dopamine transporter
Sodium-dependent dopamine transporter, sequence (P23977 whole entry): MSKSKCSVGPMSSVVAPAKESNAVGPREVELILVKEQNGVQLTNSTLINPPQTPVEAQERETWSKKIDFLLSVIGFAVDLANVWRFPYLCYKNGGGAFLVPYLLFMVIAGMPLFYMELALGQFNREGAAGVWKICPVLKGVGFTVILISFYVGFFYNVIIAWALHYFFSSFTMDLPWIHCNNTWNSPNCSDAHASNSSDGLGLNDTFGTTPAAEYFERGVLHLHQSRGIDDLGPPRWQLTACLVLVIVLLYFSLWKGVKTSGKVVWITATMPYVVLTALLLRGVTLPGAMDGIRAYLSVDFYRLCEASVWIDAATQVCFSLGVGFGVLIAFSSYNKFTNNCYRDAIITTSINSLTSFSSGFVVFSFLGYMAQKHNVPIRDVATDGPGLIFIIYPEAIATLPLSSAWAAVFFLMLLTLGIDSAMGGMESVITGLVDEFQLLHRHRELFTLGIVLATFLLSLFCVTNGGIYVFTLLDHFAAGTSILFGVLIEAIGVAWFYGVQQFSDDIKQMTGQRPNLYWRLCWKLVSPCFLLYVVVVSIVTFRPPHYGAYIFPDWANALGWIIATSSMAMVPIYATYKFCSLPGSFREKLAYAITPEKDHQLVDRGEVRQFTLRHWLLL

[5] = biological target: T2, Sodium-dependent serotonin transporter

T1 sequence (Q9WTR4 whole entry): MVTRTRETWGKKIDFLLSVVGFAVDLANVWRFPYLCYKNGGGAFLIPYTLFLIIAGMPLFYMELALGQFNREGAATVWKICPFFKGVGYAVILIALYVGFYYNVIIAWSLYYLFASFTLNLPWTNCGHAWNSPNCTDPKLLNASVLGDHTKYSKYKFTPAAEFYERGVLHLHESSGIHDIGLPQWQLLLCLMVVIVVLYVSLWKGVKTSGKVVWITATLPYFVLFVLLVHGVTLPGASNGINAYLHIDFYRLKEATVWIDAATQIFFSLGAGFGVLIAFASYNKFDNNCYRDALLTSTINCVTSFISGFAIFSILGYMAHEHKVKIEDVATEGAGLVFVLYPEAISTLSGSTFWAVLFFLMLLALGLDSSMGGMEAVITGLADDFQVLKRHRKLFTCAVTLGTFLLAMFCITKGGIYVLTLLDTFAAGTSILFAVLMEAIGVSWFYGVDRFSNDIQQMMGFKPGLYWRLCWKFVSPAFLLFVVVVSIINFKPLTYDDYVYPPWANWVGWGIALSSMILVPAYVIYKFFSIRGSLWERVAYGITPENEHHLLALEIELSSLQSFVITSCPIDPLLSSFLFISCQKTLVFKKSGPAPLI

COC(=O)C1C2CCC(CC1c1ccc(F)cc1)N2 (stereo in doubt; 4a)
Ki [1]: 5.9 nM | IC50 [2]: 9.8 nM | IC50 [3]: 92.4 nM | IC50 [4]: 32.6 nM | Ki [5]: 8.4 nM

COC(=O)C1C2CCC(CC1c1ccc(Cl)cc1)N2 (stereo in doubt; 4b)
Ki [1]: 3.1 nM | IC50 [2]: 5.14 nM | IC50 [3]: 53 nM | IC50 [4]: 3.1 nM | Ki [5]: 4.8 nM

COC(=O)C1C2CCC(CC1c1ccc(C)cc1)N2 (stereo in doubt; 4c)
Ki [1]: 5.2 nM | IC50 [2]: 9 nM | IC50 [3]: 500 nM | IC50 [4]: 33.6 nM | Ki [5]: 46 nM

COC(=O)[C@H]1[C@@H](c2ccc(F)cc2)C[C@H]2CC[C@H]1N2C (stereo in doubt; 5a)
Ki [1]: 741 nM | Ki [5]: 460 nM

COC(=O)C1C(c2ccc(Cl)cc2)CC2CCC1N2C (stereo in doubt; 5b)
Ki [5]: 91 nM

COC(=O)C1C(c2ccc(C)cc2)CC2CCC1N2C (stereo in doubt; 5c)
Ki [1]: 160 nM | IC50 [2]: 270 nM

COC(=O)[C@H]1[C@@H](c2ccc(F)cc2)C[C@H]2CC[C@H]1N2C (stereo in doubt; 6a)
Ki [1]: 503 nM | Ki [5]: 69 nM

COC(=O)C1C(c2ccc(Cl)cc2)CC2CCC1N2C (stereo in doubt; 6b)
Ki [5]: 4 nM

COC(=O)C1C(c2ccc(C)cc2)CC2CCC1N2C (stereo in doubt; 6c)
Ki [1]: 36 nM

COC(=O)C1C2CCC(CC1c1ccc(F)cc1)N2 (stereo in doubt; 7a)
Ki [1]: 11.3 nM | IC50 [2]: 18.8 nM | IC50 [4]: 4.4 nM | Ki [5]: 6.24 nM

COC(=O)C1C2CCC(CC1c1ccc(Cl)cc1)N2 (stereo in doubt; 7b)
Ki [1]: 3.28 nM | IC50 [2]: 5.45 nM | Ki [5]: 0.38 nM

COC(=O)C1C2CCC(CC1c1ccc(C)cc1)N2 (stereo in doubt; 7c)
Ki [1]: 4.4 nM | IC50 [2]: 7.2 nM | IC50 [3]: 135 nM | IC50 [4]: 0.84 nM | Ki [5]: 12 nM
